Here are results for 6 compounds from the supplement of paper PMC11061612.

The subject of one assay is KELLY (Neuroblastoma). Description: Bliss excess, mean over the matrix (fraction); higher = more synergy. The method, boiled down:
(§1)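 Cell lines in DMEM/F12 or RPMI with 10% FBS were plated in 1536-well plates, held 24 hours at 37°C, 5% CO2, then given two-drug dose matrices for 72 hours (DMSO typically 0.2%). Viability was read by CellTiter-Glo 2.0 luminescence and scaled as inhibition from 0 (vehicle wells) to 1 (blank wells). Combination Emax is the second-highest inhibition in the matrix; Bliss excess is observed combination effect minus expected EA + EB − EA·EB, EA and EB being single-agent effects.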

The subject of assay [1] is LNCaP-Clone-FGC (Prostate Carcinoma). Described as above. The method, boiled down: as §1
Assay [2] concerns LS-180 (Colorectal Carcinoma). Described as above. An outline of the steps:
as §1

Assay [3] relates to ME-1 (Acute Myeloid Leukemia). The description is as above. An outline of the steps:
as §1

Assay [4] deals with RC-K8 (B-Cell Non-Hodgkin's Lymphoma). The description is as above. The method, boiled down:
as §1

In assay [5] the test system is Ramos-2G6-4C10 (Burkitt's Lymphoma). The description is as above. An outline of the steps:
as §1

A further assay relates to 42-MG-BA (Glioblastoma). Description: combination Emax (second highest fraction inhibited in the dose matrix, 72 h); higher = more inhibition; extreme values may be limits of the assay. An outline of the steps:
as §1

The subject of another assay is AGS (Gastric Carcinoma). The description is as above. An outline of the steps: as §1
For assay [6], the system named is CAL-148 (Breast Carcinoma). Described as above. The method, boiled down:
as §1

Assay [7] concerns Calu-3 (Lung Adenocarcinoma). The assay is described as above. An outline of the steps: as §1
In assay [8] the test system is Daoy (Other Solid Carcinomas). Described as above. An outline of the steps: as §1
The subject of assay [9] is DoTc2-4510 (Cervical Carcinoma). The description is as above. The method, boiled down: as §1
For assay [10], the system named is HCC-78 (Lung Adenocarcinoma). Described as above. An outline of the steps: as §1
Assay [11] relates to HO-1-N-1 (Oral Cavity Carcinoma). Described as above. An outline of the steps:
as §1

The subject of assay [12] is HuP-T4 (Pancreatic Carcinoma). Described as above. The method, boiled down: as §1
For assay [13], the system named is LNCaP-Clone-FGC (Prostate Carcinoma). The description is as above. The method, boiled down: as §1
Assay [14] concerns MDA-MB-361 (Breast Carcinoma). The description is as above. The method, boiled down:
as §1

Assay [15] relates to NCI-H2085 (Non-Small Cell Lung Carcinoma). The description is as above. An outline of the steps:
as §1

Assay [16] concerns Ramos-2G6-4C10 (Burkitt's Lymphoma). The description is as above. The method, boiled down:
as §1

The test system of assay [17] is TE-9 (Esophageal Squamous Cell Carcinoma). Described as above. An outline of the steps:
as §1
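Wherever Bliss excess, mean over the matrix is given: after 72 h of two-drug dosing.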

Take `NC1(C(=O)N[C@@H](CCO)c2ccc(Cl)cc2)CCN(c2ncnc3[nH]ccc23)CC1` [Capivasertib] + CCN(CCO)CCCOc1ccc2c(Nc3cc(CC(=O)Nc4cccc(F)c4)[nH]n3)ncnc2c1 [AZD2811] (first compound max 10 µM, 7x7, partner max 1 µM): the Bliss excess with KELLY (Neuroblastoma) was -0.0045; in assay [1] it was 0.006; in [2], -0.0053; in [3], -0.055; in [4] it was -0.0114; in assay [5] it was 0.139. The “combination Emax” value with 42-MG-BA (Glioblastoma) turned out to be 0.782; in the assay with AGS (Gastric Carcinoma) it was 0.706; in assay [6], 1; in [7] it was 0.358; in [8], 0.501; in [9], 0.279. The “combination Emax” value in [10] was determined as 0.349; in assay [11], 0.833; in [12] it was 0.322; in assay [13] it was 0.994; in assay [14], 0.718; in assay [15], 0.436. Further, the results for the “combination Emax” value in [16] and in [17] were 0.807 and 0.267, respectively.
`NC1(C(=O)N[C@@H](CCO)c2ccc(Cl)cc2)CCN(c2ncnc3[nH]ccc23)CC1` [Capivasertib] + COc1nnc2ccc(N3CCC(c4ccc(OCCN5CCN(C)C(=O)[C@H]5C)cc4)CC3)nn12 [AZD5153] (first compound max 10 µM, 7x7, partner max 1 µM): the Bliss excess is 0.0184 with KELLY (Neuroblastoma); -0.0071 in [1]; -0.0055 in [2]; -0.0161 in [3]; -0.0101 in assay [4]; 0.0722 in assay [5]. Further, the “combination Emax” value in the assay on 42-MG-BA (Glioblastoma) was determined as 0.813; with AGS (Gastric Carcinoma), 0.944; in assay [6], 1; in assay [7], 0.749; in assay [8], 0.676; in assay [9], 0.317. Moreover, the “combination Emax” value was 0.389 in assay [10]; 0.887 in [11]; 0.442 in assay [12]; 0.993 in assay [13]; 0.718 in assay [14]; 0.6 in [15]. Moreover, the figures for the “combination Emax” value in assay [16] and in assay [17] were 0.997 and 0.354, respectively.
On to `NC1(C(=O)N[C@@H](CCO)c2ccc(Cl)cc2)CCN(c2ncnc3[nH]ccc23)CC1` [Capivasertib] + C[C@@H]1COCCN1C2=NC(=NC(=C2)C3(CC3)[S@](=N)(=O)C)C4=C5C=CNC5=NC=C4 [AZD6738] (first compound max 10 µM, 7x7, partner max 10 µM), for which the Bliss excess was 0.0028 with KELLY (Neuroblastoma); 0.0099 in assay [1]; -0.159 in [2]; -0.0086 in assay [3]; -0.0856 in assay [4]; 0.0183 in [5]. For the same compound, the “combination Emax” value with 42-MG-BA (Glioblastoma) is 0.775; in the assay on AGS (Gastric Carcinoma), 0.837; in [6], 0.986; in [7] it was 0.512; in [8] it was 0.901; in [9], 0.45. Further, the “combination Emax” value was found to be 0.721 in assay [10]; 0.869 in assay [11]; 0.446 in [12]; 0.989 in [13]; 0.78 in assay [14]; 0.504 in assay [15]. In addition, the results for the “combination Emax” value in [16] and in [17] were 0.922 and 0.232, respectively.
For `NC1(C(=O)N[C@@H](CCO)c2ccc(Cl)cc2)CCN(c2ncnc3[nH]ccc23)CC1` [Capivasertib] + Cn1cnc2c(F)c(Nc3ccc(Br)cc3Cl)c(C(=O)NOCCO)cc21 [Selumetinib] (first compound max 10 µM, 7x7, partner max 10 µM), the Bliss excess was 0.0266 in the assay with KELLY (Neuroblastoma); -0.0143 in assay [1]; -0.0247 in assay [2]; -0.0089 in assay [3]; 0.0248 in assay [4]; -0.0166 in [5]. For the same compound, the “combination Emax” value turned out to be 0.737 with 42-MG-BA (Glioblastoma); 0.953 in the assay with AGS (Gastric Carcinoma); 0.981 in assay [6]; 0.461 in [7]; 0.472 in assay [8]; 0.408 in assay [9]. The “combination Emax” value in assay [10] was 0.295; in assay [11] it was 0.848; in assay [12] it was 0.396; in assay [13], 0.969; in [14], 0.493; in assay [15], 0.427. Also, the entries for the “combination Emax” value in [16] and in assay [17] were 0.435 and 0.398, respectively.
As to `Cc1nc(Nc2ncc(C(=O)Nc3c(C)cccc3Cl)s2)cc(N2CCN(CCO)CC2)n1` [Dasatinib] + CC(=O)Nc1cccc(-n2c(=O)n(C3CC3)c(=O)c3c(Nc4ccc(I)cc4F)n(C)c(=O)c(C)c32)c1 [Trametinib] (first compound max 2 µM, 7x7, partner max 1 µM), the Bliss excess was 0.0824 with KELLY (Neuroblastoma); -0.0361 in assay [1]; 0.0883 in assay [2]; 0.0126 in assay [3]; -0.0338 in [4]; 0 in [5]. Besides, the “combination Emax” value amounted to 0.971 in the assay on 42-MG-BA (Glioblastoma); 1 with AGS (Gastric Carcinoma); 0.254 in assay [6]; 0.619 in assay [7]; 0.41 in [8]; 0.469 in assay [9]. In addition, the “combination Emax” value in assay [10] was determined as 0.347; in assay [11], 0.939; in assay [12], 0.486; in assay [13], 0.15; in assay [14] it was 0.229; in assay [15], 0.82. In addition, the “combination Emax” value turned out to be 0.238 in assay [16] and 0.271 in assay [17].
For `COc1cc2ncnc(Nc3ccc(F)c(Cl)c3)c2cc1OCCCN1CCOCC1` [Gefitinib] + CC(C)n1c(=O)n(C)c2cnc3cc(F)c(-c4ccc(OCCCN5CCCCC5)nc4)cc3c21 [AZD1390] (first compound max 10 µM, 7x7, partner max 0.3 µM), the Bliss excess in the assay on KELLY (Neuroblastoma) is -0.0388; in [1] it was -0.0491; in [2] it was -0.0623; in assay [3] it was -0.0238; in assay [4], -0.0473; in assay [5], -0.0626. The “combination Emax” value in the assay on 42-MG-BA (Glioblastoma) is 0.32; in the assay on AGS (Gastric Carcinoma) it was 0.133; in assay [6] it was 0.142; in [7] it was 0.738; in assay [8], 0.0924; in assay [9], 0.297. Besides, the “combination Emax” value was 0.133 in [10]; 0.568 in assay [11]; 0.178 in assay [12]; 0.089 in assay [13]; 0.207 in assay [14]; 0.225 in assay [15]. The “combination Emax” value in assay [16] stood at 0.148; in assay [17], 0.0944.
